{"source": "paper PMC12254266", "about": "“Multicolored sequential resonance energy transfer for detection of simultaneous ligand binding at G protein-coupled receptors” (Nature Communications, 2025)", "key": {"FFA1-Nluc [1]": {"target": "T1, FFA1-Nluc (Homo sapiens, UniProt O14842)", "T1 sequence (O14842 whole entry)": "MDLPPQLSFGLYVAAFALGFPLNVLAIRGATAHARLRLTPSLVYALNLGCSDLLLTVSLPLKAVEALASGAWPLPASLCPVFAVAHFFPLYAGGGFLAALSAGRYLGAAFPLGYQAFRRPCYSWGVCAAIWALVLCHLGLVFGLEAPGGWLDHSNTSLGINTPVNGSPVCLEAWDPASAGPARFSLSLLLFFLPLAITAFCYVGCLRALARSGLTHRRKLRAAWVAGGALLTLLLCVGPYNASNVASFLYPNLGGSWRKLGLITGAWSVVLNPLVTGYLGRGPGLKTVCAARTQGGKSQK", "assay": "DISCo-BRET (endpoint, spectra scan, kinetics) with TUG-2591 and TUG-2597 at C terminal Nluc tagged FFA1", "format": "binding", "design": "expressed in transfected cells", "conditions": "for Specific BRET (690/540), % of control: Figure 4Aiii; for Specific BRET (690/540), % of control / Specific BRET (540/450), % of control: single replicate values (technical duplicate); for Specific BRET (540/450), % of control: Figure 4Biii", "summary_of_the_method": "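Flp-In T-REx 293 cells expressing Nluc-tagged FFA1 were induced with 100 ng/mL doxycycline for 24 h, then given Nano-Glo (1:800 final). Endpoint and spectral reads were taken 5 min after ligand at 37 °C; kinetics were read at 25 °C with sequential ligand additions. BRET ratios were taken from Nluc, NBD and SulfoCy5 emissions.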"}, "FFA1-Nluc [2]": {"target": "T1, FFA1-Nluc", "assay": "Ca2+ mobilisation antagonism of FFA1 agonists (TUG-905, T360) in Flp-In T-REx 293 cells expressing FFA1-Nluc", "format": "cell-based", "design": "expressed in transfected cells", "protocol": "Nluc-FFA1, FFA1-Nluc or untagged FFA1 Flp-In T-REx 293 cells were plated at 50,000 cells per well in poly-D-lysine coated black clear bottom 96-well plates. Cells were then cultured for 24 h until reaching confluency before culture medium was replaced with medium containing 100 ng/mL of doxycycline to induce receptor expression. Cells were cultured for a further 24 h before the assay. On the day of the assay culture medium was removed and replaced with medium containing 3 μM Fura2-AM Ca^2+ dye. […] Fura2 fluorescent emission at 520 nm following excitation with each of 340 and 380 nm was measured in regular intervals both before and after adding test compounds for a total of 90 s per well. Calcium responses were determined by taking the peak 340/380 ratio after first subtracting the ratios obtained prior to addition of test compound. […]\nCa2+ mobilization responses were measured in\nFlp-In T-REx 293 cells expressing FFA1-Nluc. Ca2+ responses to increasing concentrations\npre-treated with 10 μM PPTQ. The mode of antagonism for PPTQ was assessed by\nN=3 (A-D, F, H) or N=4 (E, G) independent experiments. S ource data are provided as a […]"}}, "note": "Where “and” joins values, the source holds several entries; their conditions need not be identical. Equal entries are not always repeated.", "data": [{"smiles": "CCCN1C(=O)c2ccccc2[C@@H](C(=O)O)[C@@H]1c1ccc(OCc2cccc(-c3ccc(OCCCS(C)(=O)=O)cc3C)c2)cc1", "note": "(racemic) [TUG-2745]", "values": [{"measurement": "pIC50 DISCo-BRET SulfoCy5/NBD", "setting": "FFA1-Nluc [1]; 100 nM TUG-2591 and […] TUG-2597, one site model, NC = No competition", "result": "6.0±0.06"}, {"measurement": "Specific BRET (690/540), % of control", "setting": "FFA1-Nluc [1]; log[Ligand] -5", "result": "0.92 % of control and 2.39 % of control and -9.90 % of control and -8.10 % of control and -2.12 % of control and -2.60 % of control and -5.52 % of control and -2.17 % of control"}, {"measurement": "Specific BRET (540/450), % of control", "setting": "FFA1-Nluc [1]; log[Ligand] -5", "result": "155.62 % of control and 107.52 % of control and 117.08 % of control and 99.92 % of control and 108.86 % of control and 92.88 % of control and 108.34 % of control"}, {"measurement": "Specific BRET (690/540), % of control", "setting": "FFA1-Nluc [1]; log[Ligand] -5.5", "result": "19.71 % of control and 24.68 % of control and 5.40 % of control and 1.46 % of control and 18.78 % of control and 3.37 % of control and 12.72 % of control and 3.96 % of control"}, {"measurement": "Specific BRET (540/450), % of control", "setting": "FFA1-Nluc [1]; log[Ligand] -5.5", "result": "128.42 % of control and 65.71 % of control and 109.72 % of control and 87.17 % of control and 104.75 % of control and 74.68 % of control and 117.49 % of control"}, {"measurement": "Specific BRET (690/540), % of control", "setting": "FFA1-Nluc [1]; log[Ligand] -6", "result": "43.09 % of control and 64.83 % of control and 36.45 % of control and 38.47 % of control and 45.84 % of control and 53.64 % of control and 35.79 % of control and 29.99 % of control"}, {"measurement": "Specific BRET (540/450), % of control", "setting": "FFA1-Nluc [1]; log[Ligand] -6", "result": "103.22 % of control and 89.76 % of control and 90.60 % of control and 69.85 % of control and 83.23 % of control and 146.81 % of control"}, {"measurement": "Specific BRET (690/540), % of control", "setting": "FFA1-Nluc [1]; log[Ligand] -6.5", "result": "78.64 % of control and 74.49 % of control and 82.00 % of control and 53.43 % of control and 70.00 % of control and 66.92 % of control and 69.40 % of control and 69.25 % of control"}, {"measurement": "Specific BRET (540/450), % of control", "setting": "FFA1-Nluc [1]; log[Ligand] -6.5", "result": "86.61 % of control and 51.40 % of control and 85.70 % of control and 71.65 % of control and 68.99 % of control"}, {"measurement": "Specific BRET (690/540), % of control", "setting": "FFA1-Nluc [1]; log[Ligand] -7", "result": "89.69 % of control and 92.82 % of control and 101.91 % of control and 88.41 % of control and 100.24 % of control and 95.91 % of control and 89.88 % of control and 95.21 % of control"}, {"measurement": "Specific BRET (540/450), % of control", "setting": "FFA1-Nluc [1]; log[Ligand] -7", "result": "100.64 % of control and 40.23 % of control and 87.50 % of control and 76.88 % of control and 80.22 % of control and 64.08 % of control and 139.58 % of control"}, {"measurement": "Specific BRET (690/540), % of control", "setting": "FFA1-Nluc [1]; log[Ligand] -8", "result": "95.21 % of control and 98.62 % of control and 92.91 % of control and 107.54 % of control and 94.56 % of control and 87.72 % of control and 98.50 % of control and 104.07 % of control"}, {"measurement": "Specific BRET (540/450), % of control", "setting": "FFA1-Nluc [1]; log[Ligand] -8", "result": "82.89 % of control and 76.59 % of control and 92.89 % of control and 70.83 % of control and 83.23 % of control and 65.66 % of control and 122.27 % of control"}, {"measurement": "Specific BRET (690/540), % of control", "setting": "FFA1-Nluc [1]; log[Ligand] -9", "result": "101.38 % of control and 98.62 % of control and 102.14 % of control and 95.05 % of control and 103.71 % of control and 93.98 % of control"}, {"measurement": "Specific BRET (540/450), % of control", "setting": "FFA1-Nluc [1]; log[Ligand] -9", "result": "57.41 % of control and 46.53 % of control and 87.83 % of control and 70.67 % of control and 68.35 % of control and 75.16 % of control and 107.46 % of control"}, {"measurement": "'bottom' of the IC50 curve, DISCo-BRET SulfoCy5/NBD", "setting": "FFA1-Nluc [1]; percentage of binding obtained in the absence of competing ligand, 100 nM TUG-2591 and […] TUG-2597", "result": -15, "unit": "%"}, {"measurement": "pKi DISCo-BRET SulfoCy5/NBD", "setting": "FFA1-Nluc [1]; using Kd TUG-2591 57 nM", "result": "6.4±0.06"}, {"measurement": "antagonism of site one agonist (TUG-905) Ca2+ response", "setting": "FFA1-Nluc [2]; in words", "result": "inhibits signalling from site one"}, {"measurement": "Ca2% Response (%)", "setting": "FFA1-Nluc [2]; response to log[T360] -5 in presence of TUG-2745, Sup Fig 6H", "result": "90.24% and 94.14% and 97.83% and 85.85% and 108.28% and 87.68%"}, {"measurement": "Ca2% Response (%)", "setting": "FFA1-Nluc [2]; response to log[T360] -6 in presence of TUG-2745, Sup Fig 6H", "result": "106.53% and 104.17% and 101.28% and 97.48% and 114.91% and 110.38%"}, {"measurement": "Ca2% Response (%)", "setting": "FFA1-Nluc [2]; response to log[T360] -8 in presence of TUG-2745, Sup Fig 6H", "result": "5.16% and 2.24% and -0.89% and 3.26% and 3.57% and -0.49%"}, {"measurement": "Ca2% Response (%)", "setting": "FFA1-Nluc [2]; response to log[T360] -9 in presence of TUG-2745, Sup Fig 6H", "result": "-1.82% and 2.64% and 1.16% and 1.84% and 0.35% and 1.32%"}, {"measurement": "Ca2% Response (%)", "setting": "FFA1-Nluc [2]; response to log[T360] -10 in presence of TUG-2745, Sup Fig 6H", "result": "-0.06% and 1.71% and 3.56% and 4.07% and 1.54% and 0.19%"}, {"measurement": "Ca2% Response (%)", "setting": "FFA1-Nluc [2]; response to log[T360] -11 in presence of TUG-2745, Sup Fig 6H", "result": "2.74% and 2.14% and 3.49% and 1.57% and 6.13% and -0.07%"}, {"measurement": "Ca2% Response (%)", "setting": "FFA1-Nluc [2]; response to log[TUG-905] -5 in presence of TUG-2745, Sup Fig 6G", "result": "59.62% and 66.91% and 76.48% and 82.73% and 94.09% and 86.41%"}]}]}
